Measurements published in US20260069584A1, “METHODS OF TREATING CHRONIC MYELOID LEUKEMIA USING THE TYROSINE KINASE INHIBITOR VODOBATINIB” (Sun Pharma Advanced Research Company Ltd., priority 2022, published 2026).

Test system: CP CML
Test: Part B: disease response in CP CML subjects
Assay type: in vivo, human
Description: This was a Phase I/2, open-label, single-agent, multicenter, multi-dose, dose-escalation study in subjects with Philadelphia chromosome-positive Ph+ CML (CP CML, AP CML and BP CML) and Ph+ ALL. The primary objectives of this study were to determine the maximum tolerated dose (MTD; or recommended Phase 2 dose [RP2D]) of the compound of Formula I when administered orally and to evaluate its safety.
In this study, the dose-escalation cohort started with an accelerated titration study design (ATD) and shifted to a 3±3 design when subjects in the preceding ATD cohort experienced either grade 2 or higher adverse events (AEs) or dose-limiting toxicity (DLT) during Cycle 1 that was not clearly and incontrovertibly related to the underlying disease or concomitant medications. The DLT period consisted of 28 days (Cycle 1). Subjects experiencing DLTs were managed with dose delays and/or discontinuation and continued in the study until disease progression. Decisions to advance to a succeeding dose level occurred after the evaluation of safety and tolerability data for a given dose level.
Accordingly, the eligible subjects were treated in 4-week cycles of once daily self-administration of the compound of Formula I. The administration was after an overnight fast, or after maintaining approximately 2 hours of fasting before and after the dosing in all cycles.
For the cohorts, where the 3±3 design applies, 3 subjects were enrolled initially. If 2 of these subjects experienced a Grade 2 or more toxicity (that was not clearly and incontrovertibly related to the underlying disease or concomitant medications), subsequent cohorts were escalated according to smaller increments. Further, if there were no DLTs in the first 3 subjects, dose escalation to the next higher dose level was allowed to proceed. If 1 of the 3 subjects experienced a DLT, that dose level was expanded to 6 subjects (3 additional subjects were enrolled). If 2 subjects at a given dose level experienced a DLT, the MTD was considered to have been exceeded. The next lower dose level was expanded to 6 subjects, or if 6 subjects had already been enrolled and no more than 1 of the 6 subjects experienced a DLT, then this lower dose level was considered the MTD. Additional subjects were enrolled in dose escalation cohorts for further assessment of safety and efficacy of the compound of Formula 1 at doses that were tolerated (i.e., doses that have <2 DLTs in 6 enrolled subjects or <1 DLT in 3 enrolled subjects). Thus 204 mg was arrived at as MTD. A subject experiencing a DLT was allowed to continue therapy with a reduced dose. Subjects who experienced a DLT and recovered were treated at the next lower dose level until disease progression or other events requiring further dose reduction existed. For cohorts at Dose Level 2 or higher, a further dose reduction (i.e., up to 2 levels lower than their originally assigned dose) was implemented in the case of a further DLT or other non-DLT events requiring a dose reduction, if and when the event leading to dose reduction returned to Grade 1 or lower in severity. The reduced dose was re-escalated to the original or higher dose (i.e., the dose for which safety had been established in the dose escalation cohort) considering subject safety and response to the compound of Formula I. The subject was discontinued from treatment using the compound of Formula I, if dose reduction below 48 mg was required.
The study was conducted over a period of 60 months (5 years) which was divided in 28-days cycle. In the first two cycles, the dose administration was started on day 1 and the subject's assessments were performed on day 1, day 2, day 3, day 8, day 15 and day 22. From Cycle 3 onwards, the assessments were performed every 3 months (i.e., on day 28 of Cycle 3, followed by day 28 of Cycle 6 which was further followed by day 28 of Cycle 9). […]

Cc1ccc(C(=O)NNC(=O)c2c(C)cccc2Cl)cc1C#Cc1cnc2ccccc2c1 [compound of Formula I, N′-(2-chloro-6-methylbenzoyl)-4-methyl-3-[2-(3-quinolyl)ethynyl]-benzohydrazide]
10(100): Best Hematologic Response: Complete Response (174 mg (N = 10) EXP) | Best Hematologic Response: Major Hematologic Response (174 mg (N = 10) EXP)
2(33.3): Best Cytogenetic Response: Partial Response (204 mg (N = 6) ESC)
0: Best Cytogenetic Response: Minimal Response (12 mg (N = 1) ESC) | Best Cytogenetic Response: Minor Response (12 mg (N = 1) ESC) | Best Cytogenetic Response: No Response (12 mg (N = 1) ESC) | Best Cytogenetic Response: Partial Response (12 mg (N = 1) ESC) | Best Hematologic Response: No Evidence of Leukemia (12 mg (N = 1) ESC) | Best Hematologic Response: No Response (12 mg (N = 1) ESC) | Best Molecular Response: Complete Response (12 mg (N = 1) ESC) | Best Molecular Response: Major Response (12 mg (N = 1) ESC) | Best Cytogenetic Response: Minimal Response (48 mg (N = 3) ESC) | Best Cytogenetic Response: Minor Response (48 mg (N = 3) ESC) | Best Cytogenetic Response: No Response (48 mg (N = 3) ESC) | Best Cytogenetic Response: Partial Response (48 mg (N = 3) ESC) | Best Hematologic Response: No Evidence of Leukemia (48 mg (N = 3) ESC) | Best Molecular Response: No Response (48 mg (N = 3) ESC) | Best Cytogenetic Response: Minor Response (66 mg (N = 4) ESC) | Best Cytogenetic Response: Partial Response (66 mg (N = 4) ESC) | Best Hematologic Response: No Evidence of Leukemia (66 mg (N = 4) ESC) | Best Cytogenetic Response: Complete Response (90 mg (N = 2) ESC) | Best Cytogenetic Response: Minimal Response (90 mg (N = 2) ESC) | Best Cytogenetic Response: Minor Response (90 mg (N = 2) ESC) | Best Hematologic Response: No Evidence of Leukemia (90 mg (N = 2) ESC) | Best Hematologic Response: No Response (90 mg (N = 2) ESC) | Best Molecular Response: Complete Response (90 mg (N = 2) ESC) | Best Cytogenetic Response: Minor Response (126 mg (N = 4) ESC) | Best Cytogenetic Response: Partial Response (126 mg (N = 4) ESC) | Best Hematologic Response: No Evidence of Leukemia (126 mg (N = 4) ESC) | Best Hematologic Response: No Response (126 mg (N = 4) ESC) | Best Cytogenetic Response: No Response (174 mg (N = 7) ESC) | Best Cytogenetic Response: Partial Response (174 mg (N = 7) ESC) | Best Hematologic Response: No Evidence of Leukemia (174 mg (N = 7) ESC) | Best Cytogenetic Response: Minor Response (174 mg (N = 10) EXP) | Best Cytogenetic Response: No Response (174 mg (N = 10) EXP) | Best Hematologic Response: No Evidence of Leukemia (174 mg (N = 10) EXP) | Best Hematologic Response: No Response (174 mg (N = 10) EXP) | Best Cytogenetic Response: Minimal Response (204 mg (N = 6) ESC) | Best Cytogenetic Response: Minor Response (204 mg (N = 6) ESC) | Best Cytogenetic Response: No Response (204 mg (N = 6) ESC) | Best Hematologic Response: No Evidence of Leukemia (204 mg (N = 6) ESC)
2(66.7): Best Cytogenetic Response: Complete Response (48 mg (N = 3) ESC) | Best Cytogenetic Response: Major Cytogenetic Response (48 mg (N = 3) ESC) | Best Hematologic Response: Complete Response (48 mg (N = 3) ESC) | Best Hematologic Response: Major Hematologic Response (48 mg (N = 3) ESC) | Best Molecular Response: Complete Response (48 mg (N = 3) ESC) | Best Molecular Response: Major Response (48 mg (N = 3) ESC)
1 (10.0): Best Cytogenetic Response: Partial Response (174 mg (N = 10) EXP)
2(28.6): Best Cytogenetic Response: Minimal Response (174 mg (N = 7) ESC) | Best Hematologic Response: No Response (174 mg (N = 7) ESC)
1(10.0): Best Molecular Response: Complete Response (174 mg (N = 10) EXP) | Best Molecular Response: Major Response (174 mg (N = 10) EXP)
2(100): Best Hematologic Response: Complete Response (90 mg (N = 2) ESC) | Best Hematologic Response: Major Hematologic Response (90 mg (N = 2) ESC)
7(70.0): Best Cytogenetic Response: Major Cytogenetic Response (174 mg (N = 10) EXP)
1(14.3): Best Cytogenetic Response: Minor Response (174 mg (N = 7) ESC) | Best Molecular Response: Complete Response (174 mg (N = 7) ESC)
2(50.0): Best Cytogenetic Response: Complete Response (66 mg (N = 4) ESC) | Best Cytogenetic Response: Major Cytogenetic Response (66 mg (N = 4) ESC) | Best Cytogenetic Response: Complete Response (126 mg (N = 4) ESC) | Best Cytogenetic Response: Major Cytogenetic Response (126 mg (N = 4) ESC)
4(57.1): Best Hematologic Response: Complete Response (174 mg (N = 7) ESC) | Best Hematologic Response: Major Hematologic Response (174 mg (N = 7) ESC)
3(42.9): Best Cytogenetic Response: Complete Response (174 mg (N = 7) ESC) | Best Cytogenetic Response: Major Cytogenetic Response (174 mg (N = 7) ESC) | Best Molecular Response: Major Response (174 mg (N = 7) ESC) | Best Molecular Response: No Response (174 mg (N = 7) ESC)
1(25.0): Best Cytogenetic Response: Minimal Response (66 mg (N = 4) ESC) | Best Cytogenetic Response: No Response (66 mg (N = 4) ESC) | Best Hematologic Response: No Response (66 mg (N = 4) ESC) | Best Molecular Response: Complete Response (66 mg (N = 4) ESC) | Best Molecular Response: Major Response (66 mg (N = 4) ESC) | Best Cytogenetic Response: Minimal Response (126 mg (N = 4) ESC) | Best Cytogenetic Response: No Response (126 mg (N = 4) ESC) | Best Molecular Response: Complete Response (126 mg (N = 4) ESC) | Best Molecular Response: Major Response (126 mg (N = 4) ESC)
3(30.0): Best Cytogenetic Response: Minimal Response (174 mg (N = 10) EXP)
6(100): Best Cytogenetic Response: Major Cytogenetic Response (204 mg (N = 6) ESC) | Best Hematologic Response: Complete Response (204 mg (N = 6) ESC) | Best Hematologic Response: Major Hematologic Response (204 mg (N = 6) ESC)
1(33.3): Best Hematologic Response: No Response (48 mg (N = 3) ESC)
6(60.0): Best Cytogenetic Response: Complete Response (174 mg (N = 10) EXP)
1(100): Best Cytogenetic Response: Complete Response (12 mg (N = 1) ESC) | Best Cytogenetic Response: Major Cytogenetic Response (12 mg (N = 1) ESC) | Best Hematologic Response: Complete Response (12 mg (N = 1) ESC) | Best Hematologic Response: Major Hematologic Response (12 mg (N = 1) ESC)
9(90.0): Best Molecular Response: No Response (174 mg (N = 10) EXP)
3(75.0): Best Hematologic Response: Complete Response (66 mg (N = 4) ESC) | Best Hematologic Response: Major Hematologic Response (66 mg (N = 4) ESC) | Best Molecular Response: No Response (66 mg (N = 4) ESC) | Best Molecular Response: No Response (126 mg (N = 4) ESC)
1(50.0): Best Cytogenetic Response: Major Cytogenetic Response (90 mg (N = 2) ESC) | Best Cytogenetic Response: No Response (90 mg (N = 2) ESC) | Best Cytogenetic Response: Partial Response (90 mg (N = 2) ESC) | Best Molecular Response: Major Response (90 mg (N = 2) ESC) | Best Molecular Response: No Response (90 mg (N = 2) ESC)
4(66.7): Best Cytogenetic Response: Complete Response (204 mg (N = 6) ESC)
4(100): Best Hematologic Response: Complete Response (126 mg (N = 4) ESC) | Best Hematologic Response: Major Hematologic Response (126 mg (N = 4) ESC)
